{"source": "paper PMC8121435", "about": "“Cork-in-bottle mechanism of inhibitor binding to mammalian complex I” (Science Advances, 2021)", "format_in_all_cases": "biochemical", "key": {"[1]": {"target": "T1, bovine complex I (Bos taurus, UniProt P03887+P17694+P42026)", "T1 construct": "Complex I from bovine heart were prepared; from tissue; host or cells: bovine heart mitochondria", "assay": "NADH:decylubiquinone oxidoreduction by purified bovine complex I", "details": "purified B. taurus complex I, dQ; ± SE", "method": "(§1) All catalytic activity assays were conducted at 32°C in 96-well plates using a Molecular Devices Spectramax 384 plus plate reader. Catalysis was initiated by addition of 200 μM NADH and monitored at 340 and 380 nm (ε340–380 = 4.81 mM^−1 cm^−1). Linear rates were measured for all assays, inhibitors were added from dimethyl sulfoxide stock solutions as required, and inhibitor-insensitive rates (using either 1 μM piericidin A or 1.4 μM IACS-2858) were subtracted from each measured rate. Membrane samples were prepared as described previously ([17], [20], [59], [60]), diluted to 20 μg ml^−1 in 10 mM tris-SO4 (pH 7.5) and 250 mM sucrose, and supplemented with 3 μM horse heart cytochrome c (except for P. denitrificans, for which the activity is unaffected by the addition). Mouse, bovine, and yeast (Y. lipolytica) complex I were purified as described previously ([17], [20], [59]); diluted to 0.5 nM in 20 mM tris-HCl (pH 7.5), 0.15% asolectin, and 0.15% CHAPS; and assayed using either 200 μM dQ or 200 μM ubiquinone-1 (Sigma-Aldrich). Complex I was purified from P. denitrificans strain Pd1222 ([61]) and provided by O. D. Jarman (MRC Mitochondrial Biology Unit, University of Cambridge); it was assayed likewise but in 10 mM MES-HCl (pH 6.5), 25 mM NaCl, and 2 mM CaCl2. […]"}, "[2]": {"target": "T2, P. denitrificans complex I (Paracoccus denitrificans, UniProt P29916+P29918+P29920)", "T2 construct": "Complex I was purified from P. denitrificans strain Pd1222; endogenous in cells; host or cells: P. denitrificans strain Pd1222", "assay": "NADH:decylubiquinone oxidoreduction by purified P. denitrificans complex I", "details": "dQ, pH 6.5", "method": "as §1"}, "[3]": {"target": "T1, bovine complex I", "assay": "Inhibition kinetics in bovine complex I proteoliposomes with ubiquinone-10 and AOX", "details": "versus ubiquinone-10, reciprocal plots and kinetic modelling", "method": "Complex I from bovine heart were prepared and used to make proteoliposomes as described previously ([17], [23], [58]). Briefly, liposomes were formed from 8 mg of phosphatidylcholine, 1 mg of phosphatidylethanolamine, and 1 mg of cardiolipin (bovine heart extracts from Avanti Polar Lipids), together with varying amounts of ubiquinone-10 (Sigma-Aldrich), in ~800 μl of 10 mM 3-morpholinopropane-1-sulfonic acid (Mops)-KOH (pH 7.5) and 50 mM KCl. Following extrusion through a 100 nm of Nuclepore polycarbonate membrane (Whatman), the liposomes were partially solubilized with 0.5% sodium cholate (Anatrace), and 0.2 mg of complex I was added for reconstitution. […] Complex I concentration and orientation were quantified using the NADH:APAD^+ activity assay as described previously ([17], [23], [58]). Phospholipid phase volumes were calculated as described previously ([17], [23], [58]) to determine the amount of phospholipid present and by assuming that 1 mg of phospholipid occupies ∼1 μl. Ubiquinone-10 contents were quantified by HPLC, by reference to a set of standard samples, using a Nucleosil 100-5C18 column and a Dionex Ultimate 3000 RS electrochemical detector as described previously ([17], [23], [58]). […] All catalytic activity assays were conducted at 32°C in 96-well plates using a Molecular Devices Spectramax 384 plus plate reader. […]"}}}
{"smiles": "CS(=O)(=O)C1CCN(c2cccc(Cn3cc(-c4nc(-c5ccc(OC(F)(F)F)cc5)no4)ccc3=O)c2)CC1", "note": "[IACS-2858, 1-(3-(4-(Methylsulfonyl)piperidin-1-yl)benzyl)-5-(3-(4-(trifluoromethoxy)phenyl)-1,2,4-oxadiazol-5-yl)pyridin-2(1H)-one]", "values": [{"measurement": "IC50", "setting": "[1]", "result": "0.0093 ± 0.0007", "unit": "µM"}, {"measurement": "IC50", "setting": "[2]", "result": "~110", "unit": "µM"}, {"measurement": "mode of inhibition", "setting": "[3]", "result": "competitive"}]}
